Results taken from US6737383B1, “Herbicidal oxadiazolidines” (priority 1999, dated 2004).

Columns and labels:
[1] = test system: wild oat; experiment: Test E wild oat; type: in vivo, Avena fatua; conditions: Preemergence
[2] = test system: blackgrass; experiment: Test E blackgrass; type: in vivo, Alopecurus myosuroides; conditions: Preemergence
[3] = test system: crabgrass; experiment: Test B pre/postemergence crabgrass; type: in vivo, Digitaria sanguinalis
Procedure, shortened: (§1)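 Herbicidal effect was estimated by eye on a ten-point control scale after plants spent twelve to sixteen days in a greenhouse following soil or foliar treatment. Foliar sprays targeted plants at one to four leaves; all doses were formulated in a non-phytotoxic solvent with surfactant.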

[4] = test system: giant foxtail; experiment: Test B pre/postemergence giant foxtail; type: in vivo, Setaria faberii
Procedure, shortened: as §1

[5] = test system: Italian ryegrass; experiment: Test E Italian ryegrass; type: in vivo, Lolium multiflorum; conditions: Preemergence
[6] = test system: wheat; experiment: Test B pre/postemergence wheat; type: in vivo, Triticum aestivum; conditions: for Wheat plant response rating (0 to 10 scale): 0 is no effect
Procedure, shortened: as §1

[7] = test system: winter wheat; experiment: Test E winter wheat; type: in vivo, Triticum aestivum; conditions: Preemergence
[8] = test system: winter barley; experiment: Test E winter barley; type: in vivo, Hordeum vulgare; conditions: Preemergence
[9] = test system: duck salad; experiment: Test B flood test duck salad; type: in vivo, Heteranthera limosa
Procedure, shortened: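 Read-out is a visual response score from 0 (no effect) to 10 (complete control), assigned by comparison with untreated controls. Treatment was applied at the 2-leaf stage, and plants stayed in the greenhouse for twelve to sixteen days before scoring.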

[10] = test system: green foxtail; experiment: Test E green foxtail; type: in vivo, Setaria viridis; conditions: Preemergence
[11] = test system: winter wheat; experiment: Test E winter wheat; type: in vivo, Triticum aestivum; conditions: Postemergence
Procedure, shortened: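 Greenhouse test: compounds in non-phytotoxic solvent with surfactant; for postemergence, sprayed on plants at 1- to 4-leaf stage grown in 60:40 sandy loam/potting mix. Injury rated visually against untreated controls after about 21 to 28 days.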

[12] = Rate 62 g/ha, 0 to 100 scale, 0 no effect, 100 complete control
[13] = Rate 125 g/ha, 0 to 100 scale (0 no effect, 100 complete control)
[14] = Postemergence, Rate 125 g/ha, scale of 0 to 10 where 0 is no effect and 10 is complete control
[15] = Postemergence, Rate 250 g/ha, scale 0 to 10, 0 no effect, 10 complete control
[16] = Preemergence, Rate 62 g/ha, scale 0 to 10 (0 no effect, 10 complete control)
[17] = Preemergence, Rate 125 g/ha, scale 0 to 10 (0 no effect, 10 complete control)
[18] = Preemergence, Rate 250 g/ha, scale of 0 to 10 where 0 is no effect and 10 is complete control
[19] = Preemergence, Rate 500 g/ha, scale 0 to 10 (0 no effect, 10 complete control)
[20] = Rate 62 g/ha, Postemergence, scale of 0 to 10 where 0 is no effect and 10 is complete control
[21] = Rate 500 g/ha, Postemergence, scale 0 to 10, 0 no effect, 10 complete control
[22] = Preemergence, Rate 125 g/ha, 10 is complete control
[23] = Rate 250 g/ha, Postemergence, scale 0 to 10, 0 is no effect, 10 is complete control
[24] = Postemergence (flood test species), Rate 125 g/ha, scale of 0 to 10 where 0 is no effect and 10 is complete control
[25] = Rate 62 g/ha, Postemergence section, flood test species, scale of 0 to 10 where 0 is no effect and 10 is complete control
[26] = Rate 500 g/ha, 0 to 100 scale where 0 is no effect and 100 is complete control
[27] = Rate 1000 g/ha, 0 to 100 scale where 0 is no effect and 100 is complete control
[28] = Preemergence, Rate 62 g/ha, scale of 0 to 10 where 0 is no effect and 10 is complete control
[29] = Preemergence, Rate 125 g/ha, 0 is no effect, 10 is complete control
[30] = Preemergence, Rate 250 g/ha, scale 0 to 10, 0 is no effect, 10 is complete control
[31] = Rate 500 g/ha, Postemergence, scale 0 to 10

CC(C)N(C(=O)n1oc(=O)n(C2CCCCC2)c1=O)c1ccc(Cl)cc1 [Compound 111]
2: Crabgrass plant response rating [3, 14] | Giant foxtail plant response rating [4, 14] | Giant foxtail plant response rating [4, 20]
5: Giant foxtail plant response rating [4, 15]
1: Crabgrass plant response rating [3, 20]
10: Plant response rating, Giant foxtail [4, 18] | Giant foxtail plant response rating [4, 19] | Plant response rating, Green foxtail ([10]; Rate 250 g/ha, 0 to 100 scale)
7: Plant response rating, Crabgrass [3, 17]
0: Plant response rating, Wild oat [1, 12] | Plant response rating, Wild oat [1, 13] | Plant response rating, Blackgrass [2, 12] | Plant response rating, Blackgrass [2, 13] | Plant response rating, Blackgrass ([2]; Rate 250 g/ha, 0 to 100 scale) | Plant response rating, I. Ryegrass [5, 12] | Plant response rating, I. Ryegrass [5, 13] | Plant response rating, I. Ryegrass ([5]; Rate 250 g/ha, 0 to 100 scale) | Wheat plant response rating [6, 14] | Wheat plant response rating [6, 16] | Wheat plant response rating (0 to 10 scale) [6, 22] | Plant response rating, Wheat [6, 18] | Wheat plant response rating [6, 20] | Plant response rating, Wheat [6, 23] | Wheat plant response rating [6, 21] | Plant response rating, Wheat (winter) [7, 12] | Plant response rating, Wheat (winter) [7, 13] | Plant response rating, Wheat (winter) ([7]; Rate 250 g/ha, 0 to 100 scale) | Plant response rating, Barley (winter) [8, 12] | Plant response rating, Barley (winter) [8, 13] | Plant response rating, Barley (winter) ([8]; Rate 250 g/ha, 0 to 100 scale) | Ducksalad plant response rating [9, 24] | Ducksalad plant response rating [9, 25] | Ducksalad plant response rating ([9]; Rate 250 g/ha, headed Pre-emergence (flood test species), scale 0 to 10 (0 no effect, 10 complete control)) | Plant response rating, Ducksalad ([9]; Rate 500 g/ha, headed Pre-emergence (flood test species), scale 0 to 10 (0 no effect, 10 complete control)) | Ducksalad plant response rating ([9]; Rate 500 g/ha, listed under Postemergence (flood test species), scale 0 to 10, 0 no effect, 10 complete control) | Ducksalad plant response rating ([9]; Rate 1000 g/ha, Pre-emergence (as headed), scale 0 to 10) | Ducksalad plant response rating ([9]; Rate 2000 g/ha, Pre-emergence (as headed), scale 0 to 10) | Ducksalad plant response rating ([9]; flood test, listed under Postemergence, Rate 250 g/ha, scale 0 to 10, 0 no effect, 10 complete control) | Plant response rating, Green foxtail [10, 12] | Plant response rating, Green foxtail [10, 13] | Plant response rating, Wheat (winter) ([11]; Rate 62 g/ha, 0 to 100 scale) | Plant response rating, Wheat (winter) ([11]; Rate 125 g/ha, 0 to 100 scale) | Plant response rating, Wheat (winter) ([11]; Rate 250 g/ha, 0 to 100 scale (0 no effect, 100 complete control))
9: Plant response rating, Crabgrass [3, 18] | Crabgrass plant response rating [3, 19] | Crabgrass plant response rating [3, 21] | Plant response rating, Giant foxtail [4, 17] | Giant foxtail plant response rating [4, 21]
3: Crabgrass plant response rating [3, 15] | Wheat plant response rating [6, 19]
6: Crabgrass plant response rating [3, 16]
8: Giant foxtail plant response rating [4, 16]

CC(C)Cn1c(=O)on(C(=O)N(c2ccc(F)cc2)C(C)C)c1=O [Compound 169]
75: I. Ryegrass plant response rating (0 to 100 scale) ([5]; Rate 250 g/ha)
90: Plant response rating, I. Ryegrass [5, 27]
4: Wheat plant response rating [6, 19]
65: Plant response rating, Wheat (winter) [7, 27] | Plant response rating, Wheat (winter) ([11]; Rate 1000 g/ha, 0 to 100 scale, 0 is no effect and 100 is complete control)
60: Plant response rating, Blackgrass [2, 26] | Green foxtail plant response rating (0 to 100 scale) ([10]; Rate 250 g/ha)
70: Plant response rating, Green foxtail [10, 26]
9: Plant response rating, Crabgrass [3, 23] | Crabgrass plant response rating [3, 31] | Giant foxtail plant response rating [4, 31]
50: Wild oat plant response rating (0 to 100 scale) ([1]; Rate 250 g/ha) | Plant response rating, Barley (winter) [8, 27] | Plant response rating, Wheat (winter) ([11]; Rate 500 g/ha, 0 to 100 scale, 0 is no effect, 100 is complete control)
40: Plant response rating, Wild oat [1, 27] | Plant response rating, Wheat (winter) [7, 26] | Wheat (winter) plant response rating ([11]; Rate 250 g/ha, 0 to 100 scale where 0 is no effect and 100 is complete control)
6: Plant response rating, Giant foxtail [4, 23]
8: Crabgrass plant response rating [3, 14] | Crabgrass plant response rating [3, 28] | Crabgrass plant response rating (0 to 10 scale) [3, 29]
30: Plant response rating, Wild oat [1, 26] | Blackgrass plant response rating (0 to 100 scale) ([2]; Rate 250 g/ha) | Barley (winter) plant response rating (0 to 100 scale) ([8]; Rate 250 g/ha) | Plant response rating, Barley (winter) [8, 26]
80: Plant response rating, I. Ryegrass [5, 26]
2: Crabgrass plant response rating [3, 20] | Giant foxtail plant response rating [4, 14] | Wheat plant response rating [6, 31]
10: Crabgrass plant response rating [3, 30] | Crabgrass plant response rating [3, 19] | Giant foxtail plant response rating [4, 28] | Giant foxtail plant response rating (0 to 10 scale) [4, 29] | Giant foxtail plant response rating [4, 30] | Giant foxtail plant response rating [4, 19] | Wheat (winter) plant response rating (0 to 100 scale) ([7]; Rate 250 g/ha)
3: Wheat plant response rating [6, 30]
55: Plant response rating, Blackgrass [2, 27]
0: Giant foxtail plant response rating [4, 20] | Wheat plant response rating [6, 28] | Wheat plant response rating (0 to 10 scale) [6, 22] | Plant response rating, Wheat [6, 23] | Ducksalad plant response rating [9, 24] | Ducksalad plant response rating [9, 25] | Plant response rating, Ducksalad ([9]; Rate 250 g/ha, Postemergence (flood test), scale 0 to 10, 0 is no effect, 10 is complete control) | Ducksalad plant response rating ([9]; Rate 500 g/ha, listed under Postemergence (flood test species), scale 0 to 10)
95: Plant response rating, Green foxtail [10, 27]
